Reference: patent US20040053219A1, “Method for analysing human immunodeficiency virus (HIV) phenotypic characteristics” (priority 2000, published 2004)
Read-outs that look alike come from different tables or passages of the source.

Columns and labels:
[1] = tested on: recombinant virus, specimen R5 (215Y, 41L, 74V, 100I, 103N); assay: RVA susceptibility to RTI, recombinant virus from patient specimen R5; type: cell-based, HIV-1; settings: for Resistance Index (geometric mean): specimen R5, genotype 215Y, 41L, 74V, 100I, 103N, IC50 ratio to NL43, '>' = IC50 above the detectable range in all tests; for susceptibility / level of resistance (in words): specimen R5
Procedure: (§1) The determination of the susceptibility of an HIV virus is performed as follows: 293 T cells are transfected with 7.5 μg of pSRT plasmid linearised with NruI, 0.1 μg of pVSV-G plasmid and 0.5 and 1 μg of product from the HIV reverse transcriptase PCR reaction. The transfection precipitate is removed from the cells after 18 hours of incubation and the fresh growth medium is added. After 24 hours of culture, the supernatant is clarified by centrifugation (500 g, 15 minutes) and transferred on P4 indicator cells which have been pre-incubated with serial dilutions of a reverse transcriptase inhibitor, in triplicate wells, for four hours. The range of inhibitor concentrations used varies according to the compounds. The signal produced by activating the marker gene was developed with CPRG for 48 hours, as for the analysis of the susceptibility to a reverse transcriptase inhibitor and the IC50 index was calculated using the median effect equation.
(§2) The reproducibility of the method to determine the susceptibility of recombinant virus (RVA) to reverse transcriptase inhibitors (RTI) was evaluated with a series of tests on 5 specimens, selected so as to represent a wide range of susceptibility profiles, between 4 and 8 tests per specimen, using RNA preparations and separate PCR reactions.
(§3) (b) The Resistance Index is the ratio of the IC50 in the specimen with reference to that of NL43 determined in parallel.

[2] = tested on: recombinant virus, specimen R1 (69N/T, 70R); assay: RVA susceptibility to RTI, recombinant virus from patient specimen R1; type: cell-based, HIV-1; settings: specimen R1, genotype 69N/T, ratio of IC50 of specimen to NL43 in parallel
Procedure: as §1, §2, §3

NL4-3 reference virus = assay: Recombinant virus assay (RVA): susceptibility to reverse transcriptase inhibitors, single replication cycle, P4 indicator cells; type: cell-based, HIV-1
Procedure: as §1
The pSRT plasmid comprising a deletion in the region coding for pol ranging from reverse transcriptase codon 24 (base 2618) to reverse transcriptase codon 432 (base 3872) includes all the mutations associated with a resistance phenomenon known to date. The homologous sequences of the PCR reverse transcriptase product ranging 88 base pairs upstream and 186 base pairs downstream from the deletion in pSRT. The transfections to determine the susceptibility to reverse transcriptase inhibitors are performed with a 293T cell line with a strong capacity to be transfected rather than with HeLa cells. This is not a problem since the cells are eliminated from the supernatant containing the virus by centrifugation before the transfer of P4 cells.
Given that the early phases of virus replication, including reverse transcription, take place in indicator P4 cells in this type of determination, these cells are treated with serial dilutions of reverse transcriptase inhibitors.
(§4) The inhibitor concentration ranges are selected as a function of the cellular toxicity of each compound and the IC50/IC90 ratio for the susceptibility of resistant isolates (Table 1). […] A range of four dilutions in series, starting at 200 μM, was used for abacavir, enabling the detection of up to 60 times more resistance.
For RVA reverse transcriptase, the IC50 index is used rather than the IC90 index since the detection of the IC90 index for resistant viruses could require toxic levels of compound for most reverse transcriptase inhibitors.

[3] = tested on: 22 viruses from specimens of patients with a standard treatment; assay: RVA susceptibility to RTI, panel of 22 patient viruses compared with NL43; type: cell-based, HIV-1; settings: for median RI (Resistance Index): median over 22 viruses, 3 RVA replicates, reference NL43
Procedure: as §1
To determine whether NL43 is a suitable reference virus for comparison with clinical isolates, a panel of specimens taken from patients with a standard treatment were tested on 3 RVA replicates for their susceptibility to reverse transcriptase inhibitors.

[4] = tested on: recombinant virus, specimen R3 (184V, 215F); assay: RVA susceptibility to RTI, recombinant virus from patient specimen R3; type: cell-based, HIV-1; settings: specimen R3, genotype 184V, 21SF; IC50 ratio to NL43; '>' = IC50 above the detectable range in all tests
Procedure: as §1, §2, §3

P4 cells = type: cell-based; settings: cellular toxicity for P4 indicator cells
Procedure: as §4

[5] = tested on: recombinant virus, specimen R4 (41L, 67N, 69D, 184V, 190A, H208Y, 210W, 215Y); assay: RVA susceptibility to RTI, recombinant virus from patient specimen R4; type: cell-based, HIV-1; settings: specimen R4, genotype 41L, IC50 ratio to NL43, '>' = IC50 above the detectable range in all tests
Procedure: as §1, §2, §3

[6] = tested on: recombinant virus, specimen R2 (multi-compound resistance complex 62V, 75I, 77L, 116Y, 151M; 184V; 181C, 190A); assay: RVA susceptibility to RTI, recombinant virus from patient specimen R2; type: cell-based, HIV-1; settings: specimen R2, genotype 41L, 67N, 69N, 751, 77L, 115F, 208Y, 215F, 219Q, IC50 ratio to NL43, '>' = IC50 above the detectable range in all tests
Procedure: as §1, §2, §3

resistant virus LAI-L91H = assay: Susceptibility of recombinant HIV viruses to fusion inhibitors: LAI-L91H; type: cell-based, HIV-1; settings: reference virus not given
Source text: (§5) The invention also relates to an analytical method to determine the susceptibility of an HIV virus to a fusion inhibiting compound targeting HIV-1 gp41 protein, consisting of performing the amplification in step b either with the pair of primers SEQ ID NO: 13, SEQ ID No: 14 followed by a second amplification with the pair of primers SEQ ID No: 15, SEQ ID No: 16, or with the pair of primers SEQ ID No: 17, SEQ ID No: 18 followed by a second amplification with the pair of primers SEQ ID No: 18, SEQ ID No: 16, adding said fusion inhibiting compound or not, possibly at different concentrations, during the culture of the cell host obtained in step e, before step f and comprising in step g the comparison of the expression of the marker gene with and without fusion inhibiting compound targeting HIV-1 gp41.
The recombinations obtained by performing the amplification of the step (b) with the pair of primers FuA: 5′[…]3′ (SEQ ID No: 23) et FuB: 5′ […]3′ (SEQ ID No: 24) followed by a second amplification step, performed with the primer FuC: 5′[…]3′ (SEQ ID No: 25) and a mixture of the following primers: FuD1: 5′[…]3′ (SEQ ID No: 26) FuD2: 5′[…]3′ (SEQ ID No: 27) are highly efficient. […]
The increase of the IC50index of the resistant virus LAI-L91H (Labrosse B. et al. J Virol. 2000 vol 74 pages 2142-2150) by reference to RPR103611 has been measured.

[7] = tested on: highly resistant virus NL-DIM; assay: Susceptibility of recombinant HIV viruses to fusion inhibitors: NL-DIM; type: cell-based, HIV-1
Source text: as §5, with “gp41. […]” for “gp41.”
(§6) The IC50 index for a highly resistant virus NL-DIM ( Rimski L. T. et al. J. Virol. 1998, vol 72, pages 986-993) and for the NL4.3 virus (which is partially resistant) has been measured by reference to the DP178 inhibitor.

[8] = tested on: NL4.3 virus (partially resistant); assay: Susceptibility of recombinant HIV viruses to fusion inhibitors: NL4.3; type: cell-based, HIV-1
Source text: as §5, with “gp41. […]” for “gp41.”
as §6

[9] = Human immunodeficiency virus 1, NL43, NL4-3 reference virus, P4 cells, geometric mean of 20 repeated tests, read-out: Geometric mean IC50
[10] = Human immunodeficiency virus 1, NL43, read-out: Geometric mean IC50

Row | Molecule | Resistance Index (geometric mean) [1] | Resistance Index (geometric mean) [2] | IC50 (NL4-3 reference virus; [9]) | susceptibility / level of resistance (in words) [1] | Resistance Index (geometric mean) [4] | Resistance Index (geometric mean) [5] | Resistance Index (geometric mean) [6] | also measured
1 | Nc1ccn([C@@H]2CS[C@H](CO)O2)c(=O)n1 [3TC, lamivudine] | 1.8 | 1.3 | 1510 nM | – | – | – | – | median RI (Resistance Index) [3]: ~1.22
2 | Cc1cn([C@H]2C[C@H](N=[N+]=[N-])[C@@H](CO)O2)c(=O)[nH]c1=O [AZT, zidovudine] | – | – | 18 nM | remains susceptible | – | – | – | –
3 | Nc1nc(NC2CC2)c2ncn([C@H]3C=C[C@@H](CO)C3)c2n1 [Abacavir, abacavir] | 1.7 | 1.1 | 2230 nM | – | 4.3 | 4.3 | > | IC50 index / toxicity for P4 cells (P4 cells): approximately 250 μM
4 | Cc1cn([C@H]2C=C[C@@H](CO)O2)c(=O)[nH]c1=O [D4T, stavudine] | 1.7 | 1.4 | – | – | 3.2 | 3.6 | 43.5 | IC50 (NL4-3 reference virus; [10]): 444 nM; median RI (Resistance Index) [3]: approximately 0.92
5 | O=c1[nH]cnc2c1ncn2[C@H]1CC[C@@H](CO)O1 [DDI] | 2.6 | 1.4 | – | – | 3.1 | 3.1 | 26.9 | IC50 (NL4-3 reference virus; NL4-3 reference virus, P4 cells, geometric mean of 20 repeated tests, read-out: Geometric mean IC50): 1610 nM
6 | O=C1Nc2ccc(Cl)cc2[C@@](C#CC2CC2)(C(F)(F)F)O1 [Efavirenz, efavirenz] | > | 1.0 | – | high levels of resistance | 1.0 | 1.0 | 74.9 | IC50 (NL4-3 reference virus; [10]): 716 nM
7 | Cc1ccnc2c1NC(=O)c1cccnc1N2C1CC1 [Nevirapine, nevirapine] | 580.5 | 2.2 | 37 nM | high levels of resistance | 1.2 | 1.2 | > | resistance index ([3]; one virus of the panel with mutation on codon 98 (A for S) of reverse transcriptase): 11.0
8 | C=C(C)[C@@H]1CC[C@]2(C(=O)NCCCCCCCC(=O)N[C@@H](CC(C)C)[C@@H](O)CC(=O)O)CC[C@]3(C)[C@H](CC[C@@H]4[C@@]5(C)CC[C@H](O)C(C)(C)[C@@H]5CC[C@]43C)[C@@H]12 [RPR103611] | – | – | – | – | – | – | – | increase of IC50 index (resistant virus LAI-L91H): more than 100 times
9 | enfuvirtide | – | – | – | – | – | – | – | increase of IC50 index ([7]; NL-DIM by reference to LAI virus (culture adapted)): more than 100 times; increase of IC50 index ([7]; NL-DIM by reference to T5A1 virus (primary plasma virus)): more than 80 times; increase of IC50 index ([8]; NL4.3 by reference to LAI): 12,5 times; increase of IC50 index ([8]; NL4.3 by reference to T5A1 virus): 10 times
